Test system: Glucokinase known as hexokinase IV (human GK isoform 1, pancreas form and human GK isoform 2, liver form)
Test: Glucokinase enzymatic activity assay (G6PDH-coupled, NADH absorbance at 340 nm)
Assay type: biochemical
Details: 5 mM glucose, 1 mM ATP, 37 nM GK, 10 min at room temperature
Method in brief: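 His-tagged human GK isoform 1 (pancreas) or 2 (liver), E. coli-expressed and Ni-purified, 37 nM, with 5 mM glucose, 1 mM ATP, 1 mM NAD and G6PDH in 25 mM Hepes/KCl, 2 mM MgCl2, 1 mM DTT. Ran 10 min at room temperature, read as NADH at 340 nm. AC1.5 is the compound concentration giving 1.5-fold activity.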

Row | AC1.5 (the compound concentration at which the enzymatic activity is increased by 1.5 times) | Compound
1 | 21 nM | O=C(C[C@@H]1CSC(c2cc3cc(Cl)cc(NC4CCCC4)c3[nH]2)=N1)N1CCC(O)C1 (stereo partly drawn) [Example 80, 2-[(R)-2-(5-chloro-7-cyclopentylamino-1H-indol-2-yl)-4,5-dihydro-thiazol-4-yl]-1-(3-hydroxy-pyrrolidin-1-yl)-ethanone]
2 | 29 nM | O=C(O)C[C@@H]1CSC(c2cc3cc(Oc4ccccc4)cc(NC4CCOCC4)c3[nH]2)=N1 [Example 55, {(R)-2-[5-phenoxy-7-(tetrahydro-pyran-4-ylamino)-1H-indol-2-yl]-4,5-dihydro-thiazol-4-yl}-acetic acid]
3 | 17 nM | CS(=O)(=O)c1ccc(Oc2cc(NC3CCCC3)c3[nH]c(C4=N[C@H](CC(=O)O)CS4)cc3c2)cc1 [Example 64, {(R)-2-[7-cyclopentylamino-5-(4-methanesulfonyl-phenoxy)-1H-indol-2-yl]-4,5-dihydro-thiazol-4-yl}-acetic acid]
4 | 6 nM | OCC[C@@H]1CSC(c2cc3cc(F)cc(NC4CCCC4)c3[nH]2)=N1 [Example 39, 2-[(R)-2-(7-cyclopentylamino-5-fluoro-1H-indol-2-yl)-4,5-dihydro-thiazol-4-yl]-ethanol]
5 | 114 nM | c1cc(NC2CCCC2)c2[nH]c(C3=N[C@H](Cc4nc(N5CCCCC5)no4)CS3)cc2c1 [Example 173, cyclopentyl-{2-[(R)-4-(3-piperidin-1-yl-[1,2,4]oxadiazol-5-ylmethyl)-4,5-dihydro-thiazol-2-yl]-1H-indol-7-yl}-amine]
6 | 24 nM | NCC[C@@H]1CSC(c2cc3cc(F)cc(NC4CCCC4)c3[nH]2)=N1 [Example 124, {2-[(R)-4-(2-amino-ethyl)-4,5-dihydro-thiazol-2-yl]-5-fluoro-1H-indol-7-yl}-cyclopentyl-amine]
7 | 6 nM | O=S1(=O)CCN(CC[C@@H]2CSC(c3cc4cc(Cl)cc(NC5CCCC5)c4[nH]3)=N2)CC1 [Example 105, (5-chloro-2-{(R)-4-[2-(1,1-dioxo-thiomorpholin-4-yl)-ethyl]-4,5-dihydro-thiazol-2-yl}-1H-indol-7-yl)-cyclopentyl-amine]
8 | 25 nM | O=C(C[C@@H]1CSC(c2cc3cc(Cl)cc(NC4CCCC4)c3[nH]2)=N1)N1CCOCC1 [Example 73, 2-[(R)-2-(5-chloro-7-cyclopentylamino-1H-indol-2-yl)-4,5-dihydro-thiazol-4-yl]-1-morpholin-4-yl-ethanone]
9 | 20 nM | Fc1cc(NC2CCCC2)c2[nH]c(C3=N[C@H](CCN4CCOCC4)CS3)cc2c1 [Example 126, cyclopentyl-{5-fluoro-2-[(R)-4-(2-morpholin-4-yl-ethyl)-4,5-dihydro-thiazol-2-yl]-1H-indol-7-yl}-amine]
10 | 17 nM | OCC[C@@H]1CSC(c2cc3cc(F)cc(NC4CCOCC4)c3[nH]2)=N1 [Example 41, 2-{(R)-2-[5-fluoro-7-(tetrahydro-pyran-4-ylamino)-1H-indol-2-yl]-4,5-dihydro-thiazol-4-yl}-ethanol]
11 | 31 nM | OC[C@@H]1CSC(c2cc3cc(F)cc(NC4CCOCC4)c3[nH]2)=N1 [Example 6, {(R)-2-[5-fluoro-7-(tetrahydro-pyran-4-ylamino)-1H-indol-2-yl]-4,5-dihydro-thiazol-4-yl}-methanol]
12 | 64 nM | CS(=O)(=O)Cc1cc(NC2CCCC2)c2[nH]c(C3=N[C@H](CC(=O)O)CS3)cc2c1 [Example 69, [(R)-2-(7-cyclopentylamino-5-methanesulfonylmethyl-1H-indol-2-yl)-4,5-dihydro-thiazol-4-yl]-acetic acid]
13 | 19 nM | COc1cc(NC2CCCC2)c2[nH]c(C3=N[C@H](CC(=O)N4CCOCC4)CS3)cc2c1 [Example 88, 2-[(R)-2-(7-cyclopentylamino-5-methoxy-1H-indol-2-yl)-4,5-dihydro-thiazol-4-yl]-1-morpholin-4-yl-ethanone]
14 | 18 nM | O=C(C[C@@H]1CSC(c2cc3cc(F)cc(NC4CCCC4)c3[nH]2)=N1)NCCN1CCOCC1 [Example 85, 2-[(R)-2-(7-cyclopentylamino-5-fluoro-1H-indol-2-yl)-4,5-dihydro-thiazol-4-yl]-N-(2-morpholin-4-yl-ethyl)-acetamide]
15 | 52 nM | O=C(CO)N1CCN(CC[C@@H]2CSC(c3cc4cc(F)cc(NC5CCOCC5)c4[nH]3)=N2)CC1 [Example 140, 1-[4-(2-{(R)-2-[5-fluoro-7-(tetrahydro-pyran-4-ylamino)-1H-indol-2-yl]-4,5-dihydro-thiazol-4-yl}-ethyl)-piperazin-1-yl]-2-hydroxy-ethanone]
16 | 14 nM | Clc1cc(NC2CCCC2)c2[nH]c(C3=N[C@H](CCn4cccn4)CS3)cc2c1 [Example 106, {5-chloro-2-[(R)-4-(2-pyrazol-1-yl-ethyl)-4,5-dihydro-thiazol-2-yl]-1H-indol-7-yl}-cyclopentyl-amine]
17 | 14 nM | COC(=O)C[C@@H]1CSC(c2cc3cc(Oc4cccnc4)cc(NC4CCOCC4)c3[nH]2)=N1 [Example 58, {(R)-2-[5-(pyridin-3-yloxy)-7-(tetrahydro-pyran-4-ylamino)-1H-indol-2-yl]-4,5-dihydro-thiazol-4-yl}-acetic acid methyl ester]
18 | 27 nM | CN1CCN(C(=O)C[C@@H]2CSC(c3cc4cc(F)cc(NC5CCCC5)c4[nH]3)=N2)CC1 [Example 84, 2-[(R)-2-(7-cyclopentylamino-5-fluoro-1H-indol-2-yl)-4,5-dihydro-thiazol-4-yl]-1-(4-methyl-piperazin-1-yl)-ethanone]
19 | 12 nM | OC[C@@H]1CSC(c2cc3cc(Oc4cccnc4)cc(NC4CCCC4)c3[nH]2)=N1 [Example 13, {(R)-2-[7-cyclopentylamino-5-(pyridin-3-yloxy)-1H-indol-2-yl]-4,5-dihydro-thiazol-4-yl}-methanol]
20 | 22 nM | Clc1cc(NC2CCCC2)c2[nH]c(C3=N[C@H](CCCN4CCOCC4)CS3)cc2c1 [Example 156, {5-chloro-2-[(R)-4-(3-morpholin-4-yl-propyl)-4,5-dihydro-thiazol-2-yl]-1H-indol-7-yl}-cyclopentyl-amine]
21 | 11 nM | O=C1CCCN1CC[C@@H]1CSC(c2cc3cc(Cl)cc(NC4CCCC4)c3[nH]2)=N1 [Example 111, 1-{2-[(R)-2-(5-chloro-7-cyclopentylamino-1H-indol-2-yl)-4,5-dihydro-thiazol-4-yl]-ethyl}-pyrrolidin-2-one]
22 | 43 nM | CCOC(=O)CC[C@@H]1CSC(c2cc3cc(OCC)cc(NC4CCCC4)c3[nH]2)=N1 [Example 166, 3-[(R)-2-(7-cyclopentylamino-5-ethoxy-1H-indol-2-yl)-4,5-dihydro-thiazol-4-yl]-propionic acid ethyl ester]
23 | 32 nM | CCNC(=O)C[C@@H]1CSC(c2cc3cccc(NC4CCCC4)c3[nH]2)=N1 [Example 89, 2-[(R)-2-(7-cyclopentylamino-1H-indol-2-yl)-4,5-dihydro-thiazol-4-yl]-N-ethyl-acetamide]
24 | 17 nM | COC(=O)C[C@@H]1CSC(c2cc3cc(Oc4cccnc4)cc(NC4CCCC4)c3[nH]2)=N1 [Example 56, {(R)-2-[7-cyclopentylamino-5-(pyridin-3-yloxy)-1H-indol-2-yl]-4,5-dihydro-thiazol-4-yl}-acetic acid methyl ester]
25 | 37 nM | CNC(=O)C[C@@H]1CSC(c2cc3cccc(NC4CCCC4)c3[nH]2)=N1 [Example 90, 2-[(R)-2-(7-cyclopentylamino-1H-indol-2-yl)-4,5-dihydro-thiazol-4-yl]-N-methyl-acetamide]
26 | 26 nM | CCOC(=O)c1c(C)ncn1CC[C@@H]1CSC(c2cc3cc(Cl)cc(NC4CCCC4)c3[nH]2)=N1 [Example 109, 3-{2-[(R)-2-(5-chloro-7-cyclopentylamino-1H-indol-2-yl)-4,5-dihydro-thiazol-4-yl]-ethyl}-5-methyl-3H-imidazole-4-carboxylic acid ethyl ester]
27 | 32 nM | OC[C@@H]1CSC(c2cc3cc(Cl)cc(NC4CCOCC4)c3[nH]2)=N1 [Example 8, {(R)-2-[5-chloro-7-(tetrahydro-pyran-4-ylamino)-1H-indol-2-yl]-4,5-dihydro-thiazol-4-yl}-methanol]
28 | 6 nM | O=C(O)C[C@@H]1CSC(c2cc3cc(Br)cc(NC4CCOCC4)c3[nH]2)=N1 [Example 35, {(R)-2-[5-bromo-7-(tetrahydro-pyran-4-ylamino)-1H-indol-2-yl]-4,5-dihydro-thiazol-4-yl}-acetic acid]
29 | 14 nM | O=C1CN(CC[C@@H]2CSC(c3cc4cc(F)cc(NC5CCCC5)c4[nH]3)=N2)CCN1 [Example 130, 4-{2-[(R)-2-(7-cyclopentylamino-5-fluoro-1H-indol-2-yl)-4,5-dihydro-thiazol-4-yl]-ethyl}-piperazin-2-one]

Source: US8309586B2, “Glucokinase activators and pharmaceutical compositions containing the same as an active ingredient” (LG Life Sciences Ltd., priority 2007, dated 2012)
